Test results from patent US6534524B1, “Indazole compounds and pharmaceutical compositions for inhibiting protein kinases, and methods for their use” (Agouron Pharmaceuticals, Inc., priority 1999, dated 2003).
Read-outs that look alike come from different tables or passages of the source.

Legend:
LCK tyrosine kinase = target: T1, LCK tyrosine kinase (Homo sapiens, UniProt P06239, C224D/P223M); assay: LCK spectrophotometric assay; assay type: biochemical; conditions: Table 1; for inhibition at 1 µM: compound concentration 1 μM, read-out: Lck-P % inhibition
T1 construct: starting from amino acid residue 223 to the end of the protein at residue 509; made in house; host or cells: insect cells
T1 sequence (P06239 223-509 P223M/C224D): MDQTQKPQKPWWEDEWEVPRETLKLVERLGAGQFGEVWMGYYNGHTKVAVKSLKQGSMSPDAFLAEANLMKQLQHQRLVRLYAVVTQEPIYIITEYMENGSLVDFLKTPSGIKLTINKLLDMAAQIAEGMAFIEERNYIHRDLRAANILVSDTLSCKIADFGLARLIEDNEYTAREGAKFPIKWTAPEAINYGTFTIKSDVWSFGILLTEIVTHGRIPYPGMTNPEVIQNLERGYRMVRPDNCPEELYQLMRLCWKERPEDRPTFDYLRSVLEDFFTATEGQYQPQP
Protocol: The production of ADP from ATP that accompanies phosphoryl transfer was coupled to oxidation of NADH using phosphoenolpyruvate (PEP) and a system having pyruvate kinase (PK) and lactic dehydrogenase (LDH). The oxidation of NADH was monitored by following the decrease of absorbance at 340 nm (e340=6.22 cm^−1 mM^−1) using a Beckman DU 650 spectrophotometer. […] Ki values were determined by measuring enzyme activity in the presence of varying concentrations of test compounds. The data were analyzed using Enzyme Kinetic and Kaleidagraph software.
The spectrophotometric assay was carried out as described above for VEGF-R2, except for the following changes in concentration: LCK=60 nM, MgCl2=0 mM, poly(E4Y1)=20 mM.

human CHK1 (FL-CHK1) = target: T2, human CHK1 (FL-CHK1) (Homo sapiens, UniProt O14757); assay: CHK1 assay (coupled spectrophotometric, Syntide-2); assay type: biochemical; conditions: read-out: CHK-1 Ki
T2 construct: C-terminally His-tagged full-length human CHK1 (FL-CHK1); made in house; host or cells: baculovirus/insect cell system
T2 sequence (O14757 1-476): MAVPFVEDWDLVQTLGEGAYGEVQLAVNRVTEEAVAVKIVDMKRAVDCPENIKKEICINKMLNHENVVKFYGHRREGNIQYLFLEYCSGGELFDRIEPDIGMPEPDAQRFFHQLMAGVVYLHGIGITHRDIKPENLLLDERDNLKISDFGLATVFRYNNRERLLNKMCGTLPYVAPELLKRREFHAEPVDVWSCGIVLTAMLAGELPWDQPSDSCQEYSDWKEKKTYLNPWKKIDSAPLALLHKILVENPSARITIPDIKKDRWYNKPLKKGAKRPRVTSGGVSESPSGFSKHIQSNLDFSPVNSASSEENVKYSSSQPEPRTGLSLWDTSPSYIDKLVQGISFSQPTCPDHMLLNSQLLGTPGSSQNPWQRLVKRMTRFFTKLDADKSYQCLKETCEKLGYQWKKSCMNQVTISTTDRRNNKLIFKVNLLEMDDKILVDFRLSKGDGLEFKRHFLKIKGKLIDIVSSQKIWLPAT
Outline: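 Full-length C-terminally His-tagged human CHK1 expressed in baculovirus/insect cells, used at 10 nM with Syntide-2 substrate. ADP formation coupled via PK/LDH to NADH oxidation, followed as absorbance decrease at 340 nm. Ki from initial rates at varying compound concentrations.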

Mouse PK assay = assay type: in vivo; conditions: female, B6, plasma, oral
Protocol: Mouse PK Assay The pharmacolinetics (e.g., absorption and elimination) of drugs in mice were analyzed using the following experiment. […] This was administered orally (p.o.) and intraperitoneally (i.p.) at variable doses to two distinct groups (n=4) of B6 female mice. Blood samples were collected via an orbital bleed at time points: 0 hour (pre-dose), 0.5 h, 1.0 h, 2.0 h, and 4.0 h, and 7.0 h post dose. Plasma was obtained from each sample by centrifugation at 2500 rpm for 5 min. Test compound was extracted from the plasma by an organic protein precipitation method. For each time bleed 50 μL of plasma was combined with 1.0 mL of acetonitrile, vortexed for 2 min. and then spun at 4000 rpm for 15 min. to precipitate the protein and extract out the test compound. Next, the acetonitrile supernatant (the extract containing test compound) was poured into new test tubes and evaporated on a hot plate (25° C.) under a steam of N2 gas. […] Test-compound plasma concentrations (μg/mL) were determined by a comparison to standard curve (peak area vs. conc. μg/mL) using known concentrations of test compound extracted from plasma samples in the manner described above. […] The quantitated test samples were plotted for visual display using Kalidagraph software and their pharmacokinetic parameters were determined using WIN NONLIN software.

[1] = Determination of inhibitor concentration in mouse plasma after intraperitoneal and oral dosing; assay type: in vivo; conditions: for concentration at 7 h: female
Outline: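 Plasma levels quantified by HPLC or LC-MS using a standard curve prepared in mouse plasma, following ethyl acetate extraction with internal standard and sodium hydroxide. Sampling at 0.5, 1, 4 h (ocular bleed) and 7 h (cardiac puncture) after oral or intraperitoneal dosing.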

CDK4/Cyclin D3 complex = CDK4/Cyclin D3 complex (Homo sapiens, UniProt P11802); assay: CDK4/Cyclin D assay ([32P]ATP, Rb fragment)
Sequence of CDK4/Cyclin D3 complex (P11802 whole entry, the tested form may be a part): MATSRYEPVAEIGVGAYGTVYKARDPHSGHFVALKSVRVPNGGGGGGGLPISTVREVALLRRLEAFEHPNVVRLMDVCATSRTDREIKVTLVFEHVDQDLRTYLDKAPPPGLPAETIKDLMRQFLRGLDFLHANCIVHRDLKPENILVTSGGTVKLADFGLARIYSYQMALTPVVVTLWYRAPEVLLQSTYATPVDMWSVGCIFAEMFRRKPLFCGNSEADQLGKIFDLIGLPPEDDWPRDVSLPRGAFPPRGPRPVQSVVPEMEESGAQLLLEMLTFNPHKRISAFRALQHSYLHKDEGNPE
Sequence of CDK4/Cyclin D3 complex (P30281 whole entry partner, the tested form may be a part): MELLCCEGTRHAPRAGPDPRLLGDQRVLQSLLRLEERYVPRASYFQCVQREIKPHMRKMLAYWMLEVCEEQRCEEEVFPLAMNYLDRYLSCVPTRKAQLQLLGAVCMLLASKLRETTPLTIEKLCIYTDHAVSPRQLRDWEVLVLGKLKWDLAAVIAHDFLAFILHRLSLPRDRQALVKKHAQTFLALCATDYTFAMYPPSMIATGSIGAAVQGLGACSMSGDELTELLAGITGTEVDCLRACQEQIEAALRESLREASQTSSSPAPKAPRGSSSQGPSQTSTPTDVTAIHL

human FGF-R1 = human FGF-R1 (Homo sapiens, UniProt P11362, C488A/C584S/L457V); assay: FGF-R spectrophotometric assay
Sequence of human FGF-R1 (P11362 456-766 L457V/C488A/C584S): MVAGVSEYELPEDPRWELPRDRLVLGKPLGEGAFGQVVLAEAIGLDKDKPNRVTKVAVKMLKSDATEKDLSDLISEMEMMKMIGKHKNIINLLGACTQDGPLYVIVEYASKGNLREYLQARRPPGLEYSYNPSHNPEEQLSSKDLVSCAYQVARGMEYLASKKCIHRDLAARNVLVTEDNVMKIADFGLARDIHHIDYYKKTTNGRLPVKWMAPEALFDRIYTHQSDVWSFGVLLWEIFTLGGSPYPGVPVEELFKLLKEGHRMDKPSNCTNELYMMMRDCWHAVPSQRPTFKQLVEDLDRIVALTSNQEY

CDK2/Cyclin A = CDK2/Cyclin A (Homo sapiens, UniProt P24941); assay: CDK2/Cyclin A assay ([32P]ATP, Rb fragment); assay type: biochemical; conditions: Table 1
[2] = target: phosphorylated VEGF-R2Δ50 (FLVK-P) (Homo sapiens, UniProt P35968, DEL940-989/E990V); assay: VEGF-R2 coupled spectrophotometric assay, phosphorylated VEGF-R2Δ50 (FLVK-P)
Sequence of phosphorylated VEGF-R2Δ50 (FLVK-P) (P35968 with tags, fused parts or gaps DEL940-989/E990V limits assumed): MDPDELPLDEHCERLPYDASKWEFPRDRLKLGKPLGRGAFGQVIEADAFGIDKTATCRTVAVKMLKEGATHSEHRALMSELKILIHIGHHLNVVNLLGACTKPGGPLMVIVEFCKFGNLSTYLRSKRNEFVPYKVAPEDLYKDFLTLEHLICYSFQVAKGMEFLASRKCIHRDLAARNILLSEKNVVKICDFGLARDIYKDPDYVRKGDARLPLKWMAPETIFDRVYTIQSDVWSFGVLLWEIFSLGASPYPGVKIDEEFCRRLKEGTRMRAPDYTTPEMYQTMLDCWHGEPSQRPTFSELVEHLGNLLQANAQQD

[3] = Human liver microsome (HLM) assay; assay type: in vitro ADME; conditions: human liver microsomes, 5 μM test compound
Outline: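 LC-MS quantified test compound remaining after 0 and 2 h incubation with human liver microsomes. Triplicate samples, clarified by 10 min centrifugation at 14000 g.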

[4] = target: unphosphorylated VEGF-R2Δ50 (FLVK) (Homo sapiens, UniProt P35968, DEL940-989/E990V); assay: VEGF-R2 coupled spectrophotometric assay, unphosphorylated VEGF-R2Δ50 (FLVK); conditions: for Ki: FLVK Ki, Table 1
Sequence of unphosphorylated VEGF-R2Δ50 (FLVK) (P35968 with tags, fused parts or gaps DEL940-989/E990V limits assumed): as above

[5] = Isomerization under assay conditions; assay type: physicochemical; conditions: Z-isomer
Protocol: Example 33(h) was prepared in the same reaction as Example 33(d). […] Found: C, (66.36), H, (4.08), N, (11.49), S, (6.55).

[6] = tested on: retinal vasculature (VEGF dependent); assay: In vivo assay of retinal vascular development in neonatal rats; conditions: P8 model; intravitreal; 5 mg/ml; vehicle PEG/water 50:50
[7] = tested on: VEGF dependent retinal neovascularization; assay: In vivo assay of retinal vascular development in neonatal rat model of retinopathy of prematurity; conditions: ROP model, intravitreal, vehicle PEG/water 70:30; for Initial Evaluation: 10 mg/ml
Protocol: In Vivo Assay of Retinal Vascular Development in Neonatal Rat Model of Retinopathy of Prematurity A second model of VEGF dependent retinal neovascularization was employed to evaluate the activities of this series of compounds. […] This alternating cycle of hyperoxia followed by hypoxia is repeated 7 times after which the animals are removed to room air (P14). Compounds are administered via intravitreal injection upon removal to room air and the animals are sacrificed 6 days later (P20). The isolated retinas are then isolated, stained mounted and analyzed as detail above in the development model. The effectiveness was also graded as is described for the development model.

[8] = tested on: lung cancer cells (line MV522); assay: Cancer cell proliferation (MV522) assay; assay type: cell-based
Protocol: Cancer Cell Proliferation (MV522) Assay
The protocol for assessing cellular proliferation in cancer cells is similar to that used for assessments in HUVEC cells. Two thousand lung cancer cells (line MV522, acquired from American Tissue Cultural Collection) were seeded in growth media (RPMI1640 medium supplemented with 2 mM glutamine and 10% FBS). Cells are allowed to attach for 1 day prior to addition of test agents and/or vehicles. Cells are treated simultaneously with the same test agents used in the HUVEC assay. Cellular proliferation is quantified by MTT dye reduction assay 72 hours after exposure to test agents. The total length of the assay is 4 days vs. 5 for HUVEC cells because MV522 cells are not exposed to starvation medium.

[9] = tested on: human umbilical vein endothelial cells (HUVEC); assay: HUVEC proliferation assay (VEGF-stimulated, MTT); assay type: cell-based; conditions: Homo sapiens, HUVEC
[10] = target: T3, phosphorylase kinase (truncated catalytic gamma subunit) (Oryctolagus cuniculus, UniProt P00518); assay: Phosphorylase kinase assay; assay type: biochemical; conditions: 10 μM of compound
T3 construct: (gamma subunit) of phosphorylase kinase (amino acids 1-298); made in house
T3 sequence (P00518 2-299 limits assumed): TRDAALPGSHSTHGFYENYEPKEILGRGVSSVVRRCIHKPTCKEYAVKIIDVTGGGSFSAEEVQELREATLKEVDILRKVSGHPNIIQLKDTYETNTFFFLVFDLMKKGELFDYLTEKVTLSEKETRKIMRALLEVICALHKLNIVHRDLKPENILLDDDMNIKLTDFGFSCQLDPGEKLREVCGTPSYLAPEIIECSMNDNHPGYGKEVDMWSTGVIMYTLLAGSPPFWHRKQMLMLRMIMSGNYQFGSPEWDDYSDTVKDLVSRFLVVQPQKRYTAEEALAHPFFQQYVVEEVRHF
Protocol: Phosphorylase Kinase Assay. In the assay, the purified catalytic subunit is used to phosphorylate phosphorylase b using radiolabled ATP. Briefly, 1.5 mg/ml of phosphorylase b is incubated with 10 nM phosphorylase kinase in 10 Mm MgCl2, 50 mM Hepes pH 7.4, at 37° C. […] The reaction was terminated and proteins were precipitated by the addition of TCA to 10% final concentration. […] The filter plate was then extensively washed with 20% TCA, and dried. Scintilation fluid was then added to the plate and incorporated radiolabel was counted on a Wallac microbeta counter.

CDK1 = CDK1 (Homo sapiens, UniProt P06493); assay: CDK1 inhibition; assay type: biochemical; conditions: Table 3
Sequence of CDK1 (P06493 whole entry, species assumed): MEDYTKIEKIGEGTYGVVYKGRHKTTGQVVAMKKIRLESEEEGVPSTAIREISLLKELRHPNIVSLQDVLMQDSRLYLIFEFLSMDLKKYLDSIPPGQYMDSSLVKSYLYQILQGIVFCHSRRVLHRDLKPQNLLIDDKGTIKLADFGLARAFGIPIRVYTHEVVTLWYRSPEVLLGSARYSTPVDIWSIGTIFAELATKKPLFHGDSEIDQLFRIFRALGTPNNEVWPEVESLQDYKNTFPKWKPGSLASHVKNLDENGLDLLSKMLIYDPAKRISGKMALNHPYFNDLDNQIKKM
Sequence of CDK1 (P14635 whole entry partner, species assumed): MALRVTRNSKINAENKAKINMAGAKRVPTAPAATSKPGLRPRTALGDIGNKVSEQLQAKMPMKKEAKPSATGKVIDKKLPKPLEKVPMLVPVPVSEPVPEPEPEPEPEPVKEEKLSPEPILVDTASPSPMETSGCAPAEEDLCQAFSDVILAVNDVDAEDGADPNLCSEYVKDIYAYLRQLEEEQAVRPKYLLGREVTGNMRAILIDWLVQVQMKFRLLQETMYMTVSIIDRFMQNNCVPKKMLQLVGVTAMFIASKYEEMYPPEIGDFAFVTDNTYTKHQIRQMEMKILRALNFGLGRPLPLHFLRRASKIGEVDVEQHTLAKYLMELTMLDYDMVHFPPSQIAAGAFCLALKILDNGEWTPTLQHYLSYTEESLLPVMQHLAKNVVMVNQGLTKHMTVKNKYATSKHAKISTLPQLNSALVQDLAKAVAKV

[11] = IP, 50 mg/kg, vehicle PEG400:H2O pH 2.3 30:70
[12] = IP, 25 mg/kg, vehicle PEG400:H2O pH 2.3 60:40
[13] = PO, 50 mg/kg, vehicle PEG400:H2O pH 2.3 60:40
[14] = + albumin, read-out: HUVEC + albumin IC50

Question: Which results are given for `COc1cc(-c2ccc3c(/C=C/c4ccc(OC)c(OC)c4)n[nH]c3c2)ccc1O` [Example 1(a), 3-[E-2-(3,4-Dimethoxy-phenyl)vinyl]-6-(3-methoxy-4-hydroxy-phenyl)-1H-indazole]?
Answer: Ki (LCK tyrosine kinase; read-out: Lck-P Ki): 88 nM; Ki (human CHK1 (FL-CHK1); Table 1): 5.2 nM; AUC (Mouse PK assay): 330 ng·h/mL; AUClast [1, 11]: 691 ng·h/mL; Cmax [1, 11]: 283 ng/mL; plasma half-life (T1/2) [1, 11]: 2.4 h; Ki (CDK4/Cyclin D3 complex): 13 nM; Ki (human FGF-R1): 27 nM; Ki (CDK2/Cyclin A): 19 nM; Ki [2]: 2 nM; % remain (HLM, 2 h) [3]: 98%; Ki [4]: 0.3 nM

Question: For `O=C(Nc1cccc(Cl)c1)c1ccccc1Sc1ccc2c(/C=C\c3ccccn3)n[nH]c2c1` [Example 33(h), 6-[2-(3-Chlorophenylcarbamoyl)phenylsulfanyl]-3-Z-[2-(pyridin-2-yl)ethenyl]-1H-indazole], which “Isomerization under assay conditions” value [5] is on record?
Answer: found to isomerize to Example 33(d) under assay conditions

Question: What does the source list for `C/C=C/C(=O)Nc1cccc(C(=O)c2ccc3c(/C=C/c4ccccn4)n[nH]c3c2)c1` [Example 41(c), 6-(3-Crotonylamidobenzoyl)-3-E-[2-(pyridin-2-yl)ethenyl]-1H-indazole]?
Answer: AUClast [1, 12]: 3397 ng·h/mL; plasma half-life (T1/2) [1, 12]: 1.7 h; AUClast [1, 13]: 3182 ng·h/mL; plasma half-life (T1/2) [1, 13]: 2.6 h; concentration at 7 h ([1]; IP, 25 mg/kg, vehicle PEG400:H2O pH 2.3 60:40, read-out: Cmin (7 hr conc.)): 57 ng/mL; concentration at 7 h ([1]; PO, 50 mg/kg, vehicle PEG400:H2O pH 2.3 60:40, read-out: Cmin (7 hr conc.)): 104 ng/mL; Initial Evaluation [6]: ++ (two pluses being judged to be approximately 25-75% regression); % inhibition ([7]; 1 mg/ml): 16%; Initial Evaluation [7]: +++ (three pluses give to retinas with near total regression (approximately 75% or greater)); % remain (HLM, 2 h) [3]: 68%; Ki [4]: 0.22 nM

Question: For `O=C(c1cccc(NC(=O)c2cccc3[nH]ccc23)c1)c1ccc2c(/C=N/n3cccc3)n[nH]c2c1` [Example 45(a), 6-[3-(Indol-4-ylcarboxamido)benzoyl]-3-E-[N-(pyrrol-1-yl)iminomethyl]-1H-indazole], which IC50 [8] is on record?
Answer: 3500 nM

Question: And the IC50 [9, 14]?
Answer: ~15 nM

Question: And the IC50 ([9]; read-out: HUVEC IC50)?
Answer: 3.1 nM

Question: For `O=C(Nc1cccc(C(=O)c2ccc3c(/C=N/n4cccc4)n[nH]c3c2)c1)c1ccccc1` [Example 45(b), 6-(3-Benzamidobenzoyl)-3-E-[N-(pyrrol-1-yl)iminomethyl]-1H-indazole], which inhibition at 1 µM (LCK tyrosine kinase) is on record?
Answer: 86%

Question: And the AUClast [1, 12]?
Answer: 11361 ng·h/mL

Question: What about the “plasma half-life (T1/2)” value [1, 12] of the same compound?
Answer: 2.0 h

Question: What about the AUClast [1, 13] of the same compound?
Answer: 1636 ng·h/mL

Question: What about the “plasma half-life (T1/2)” value [1, 13] of the same compound?
Answer: 3.0 h

Question: What about the inhibition at 1 µM (human FGF-R1; read-out: FGF-P % inhibition, Table 1, compound concentration 1 μM) of the same compound?
Answer: 79%

Question: And the IC50 [8]?
Answer: 4400 nM

Question: And the “Initial Evaluation” value [7]?
Answer: ++ (two pluses being judged to be approximately 25-75% regression)

Question: And the inhibition at 0.05 µM ([4]; read-out: FLVK % inhibition)?
Answer: 99%

Question: Which inhibition at 1 µM (LCK tyrosine kinase) does the source give for `Cc1cc(C(=O)Nc2cc(Nc3ccc4c(/C=C/c5ccccn5)n[nH]c4c3)ccc2F)n(C)n1` [Example 49(a), 6-[N-(3-((1,3-Dimethyl-1H-pyrazol-5-yl)carboxamido)-4-fluoro-phenyl)amino]-3-E-[2-(pyridin-2-yl)ethenyl]-1H-indazole] here?
Answer: 11%

Question: And the AUClast ([1]; PO, 25 mg/kg, vehicle PEG400:H2O pH 2.3 30:70)?
Answer: 712 ng·h/mL

Question: And the concentration at 7 h ([1]; PO, 25 mg/kg, vehicle PEG400:H2O pH 2.3 30:70, read-out: Cmin (7 hr conc.))?
Answer: 15 ng/mL

Question: What about the Ki (human FGF-R1) of the same compound?
Answer: 79 nM

Question: What about the IC50 [8] of the same compound?
Answer: 8400 nM

Question: And the IC50 [9, 14]?
Answer: ~4 nM

Question: With `C(=C\c1n[nH]c2cc(-c3ccnc4[nH]ccc34)ccc12)/c1ccccc1` [Example 52(b), 6-(7-Azaindol-4-yl)-3-E-styryl-1H-indazole] as the compound, how does the Ki (human CHK1 (FL-CHK1); Table 3) read?
Answer: 80 nM

Question: What about the inhibition at 10 µM [10] of the same compound?
Answer: 92%

Question: And the Ki (CDK1)?
Answer: 41 nM

Question: And the inhibition at 1 µM ([4]; read-out: FLVK % inhibition)?
Answer: 94%
